According to patent US10189836B2, “Therapeutic compounds, compositions and methods of use thereof” (Genentech, Inc., priority 2015, dated 2019):

Columns and labels:
[1] = biological target: isolated recombinant JAK1 kinase domain (Homo sapiens (Human), UniProt P23458); assay: JAK1 enzyme assay (Caliper LabChip, Ki); assay type: biochemical; settings: isolated recombinant JAK1 kinase domain, 1.5 nM enzyme, ATP 25 μM
[2] = biological target: isolated recombinant JAK2 kinase domain (Homo sapiens (Human), UniProt O60674); assay: JAK2 enzyme assay (Caliper LabChip, Ki); assay type: biochemical; settings: isolated recombinant JAK2 kinase domain, 0.2 nM enzyme, ATP 25 μM
isolated recombinant JAK2 kinase domain, sequence (O60674 849-1124): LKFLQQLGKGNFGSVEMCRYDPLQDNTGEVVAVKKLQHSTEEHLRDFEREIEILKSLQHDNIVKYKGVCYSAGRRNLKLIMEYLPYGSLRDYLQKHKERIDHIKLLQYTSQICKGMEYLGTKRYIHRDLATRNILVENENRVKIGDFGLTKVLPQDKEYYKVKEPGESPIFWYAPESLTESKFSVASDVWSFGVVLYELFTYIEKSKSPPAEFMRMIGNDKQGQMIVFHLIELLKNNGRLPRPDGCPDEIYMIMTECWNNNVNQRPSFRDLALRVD

isolated recombinant JAK1 kinase domain, sequence (P23458 875-1153): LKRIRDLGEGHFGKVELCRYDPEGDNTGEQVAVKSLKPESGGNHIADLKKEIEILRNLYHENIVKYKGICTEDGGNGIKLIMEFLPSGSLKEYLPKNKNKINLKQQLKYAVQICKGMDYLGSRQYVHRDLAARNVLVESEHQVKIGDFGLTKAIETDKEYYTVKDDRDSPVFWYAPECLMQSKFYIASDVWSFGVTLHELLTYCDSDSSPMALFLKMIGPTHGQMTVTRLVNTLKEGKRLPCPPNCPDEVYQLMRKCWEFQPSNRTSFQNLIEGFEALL

SMILES	Ki [1]	Ki [2]
CN1CCN(C(=O)Cn2cc(Nc3nc4c(N5CC6CCC(C5)N6S(=O)(=O)Cc5ccccc5Cl)cccn4n3)cn2)CC1 [Example 161, 2-[4-[[8-[8-[(2-chlorophenyl)methylsulfonyl]-3,8-diazabicyclo[3.2.1]octan-3-yl]-[1,2,4]triazolo[1,5-a]pyridin-2-yl]amino]pyrazol-1-yl]-1-(4-methylpiperazin-1-yl)ethanone]	0.6 nM	0.7 nM
CN1CCN(C(=O)Cn2cc(Nc3nc4c(N5C[C@H]6CC[C@@H](C5)[C@H]6OCc5ccc(F)nc5)cccn4n3)cn2)CC1 [Example 162, 1-(4-methylpiperazin-1-yl)-2-[4-[[8-[rac-(1S,5R)-8-[(6-fluoro-3-pyridyl)methoxy]-3-azabicyclo[3.2.1]octan-3-yl]-[1,2,4]triazolo[1,5-a]pyridin-2-yl]amino]pyrazol-1-yl]ethanone]	0.6 nM	0.6 nM
CN1CCN(C(=O)Cn2cc(Nc3nc4c(N5C[C@H]6CC[C@@H](C5)[C@H]6N(C)C(=O)CC(F)(F)F)cccn4n3)cn2)CC1 [Example 164, 3,3,3-trifluoro-N-methyl-N-[rac-(1S,5R)-3-[2-[[1-[2-(4-methylpiperazin-1-yl)-2-oxo-ethyl]pyrazol-4-yl]amino]-[1,2,4]triazolo[1,5-a]pyridin-8-yl]-3-azabicyclo[3.2.1]octan-8-yl]propanamide]	0.7 nM	1 nM
CN1CCN(C(=O)Cn2cc(Nc3nc4c(N5CC6CCC(C5)N6S(=O)(=O)Cc5cccc(Cl)c5)cccn4n3)cn2)CC1 [Example 165, 2-[4-[[8-[8-[(3-chlorophenyl)methylsulfonyl]-3,8-diazabicyclo[3.2.1]octan-3-yl]-[1,2,4]triazolo[1,5-a]pyridin-2-yl]amino]pyrazol-1-yl]-1-(4-methylpiperazin-1-yl)ethanone]	0.4 nM	0.8 nM
CN1CCN(C(=O)Cn2cc(Nc3nc4c(N5CC6CCC(C5)N6S(=O)(=O)Cc5ccc(Cl)cc5)cccn4n3)cn2)CC1 [Example 166, 2-[4-[[8-[8-[(4-chlorophenyl)methylsulfonyl]-3,8-diazabicyclo[3.2.1]octan-3-yl]-[1,2,4]triazolo[1,5-a]pyridin-2-yl]amino]pyrazol-1-yl]-1-(4-methylpiperazin-1-yl)ethanone]	0.7 nM	0.9 nM
CN1CCN(C(=O)Cn2cc(Nc3nc4c(N5CC6CCC(C5)N6S(=O)(=O)Cc5ccccc5C(F)(F)F)cccn4n3)cn2)CC1 [Example 167, 1-(4-methylpiperazin-1-yl)-2-[4-[[8-[8-([2-(trifluoromethyl)phenyl]methylsulfonyl]-3,8-diazabicyclo[3.2.1]octan-3-yl]-[1,2,4]triazolo[1,5-a]pyridin-2-yl]amino]pyrazol-1-yl]ethanone]	0.6 nM	1 nM
CN1CCN(C(=O)Cn2cc(Nc3nc4c(N5CC6CCC(C5)N6S(=O)(=O)Cc5ccc(C#N)cc5)cccn4n3)cn2)CC1 [Example 168, 4-[[3-[2-[[1-[2-(4-methylpiperazin-1-yl)-2-oxo-ethyl]pyrazo1-4-yl]amino]-[1,2,4]triazolo[1,5-a]pyridin-8-yl]-3,8-diazabicyclo[3.2.1]octan-8-yl]sulfonylmethyl]-benzonitrile]	2.7 nM	4.4 nM
CSc1cccc(S(=O)(=O)N2C3CCC2CN(c2cccn4nc(Nc5cnn(CC(=O)N6CCN(C)CC6)c5)nc24)C3)c1 [Example 169, 1-(4-methylpiperazin-1-yl)-2-[4-[[8-[8-(3-methylsulfanylphenyl)sulfonyl-3,8-diazabicyclo[3.2.1]octan-3-yl]-[1,2,4]triazolo[1,5-a]pyridin-2-yl]amino]pyrazol-1-yl]ethanone]	0.6 nM	0.6 nM
CN1CCN(C(=O)Cn2cc(Nc3nc4c(N5CC6CCC(C5)N6C(=O)N5CC(F)C5)cccn4n3)cn2)CC1 [Example 170, 2-[4-[[8-[8-(3-fluoroazetidine-1-carbonyl)-3,8-diazabicyclo[3.2.1]octan-3-yl]-[1,2,4]triazolo[1,5-a]pyridin-2-yl]amino]pyrazol-1-yl]-1-(4-methylpiperazin-1-yl)ethanone]	0.3 nM	0.2 nM
CSC1CN(C(=O)N2C3CCC2CN(c2cccn4nc(Nc5cnn(CC(=O)N6CCN(C)CC6)c5)nc24)C3)C1 [Example 171, 1-(4-methylpiperazin-1-yl)-2-[4-[[8-[8-(3-methylsulfanylazetidine-1-carbonyl)-3,8-diazabicyclo[3.2.1]octan-3-yl]-[1,2,4]triazolo[1,5-a]pyridin-2-yl]amino]pyrazol-1-yl]ethanone]	1.3 nM	2.9 nM
CSC1CCN(C(=O)N2C3CCC2CN(c2cccn4nc(Nc5cnn(CC(=O)N6CCN(C)CC6)c5)nc24)C3)C1 (centres unmarked) [Example 172, 1-(4-methylpiperazin-1-yl)-2-[4-[[8-[8-(3-methylsulfanylpyrrolidine-1-carbonyl)-3,8-diazabicyclo[3.2.1]octan-3-yl]-[1,2,4]triazolo[1,5-a]pyridin-2-yl]amino]pyrazol-1-yl]ethanone]	0.6 nM	0.9 nM
CN1CCN(C(=O)Cn2cc(Nc3nc4c(N5CC6CCC(C5)N6C(=O)N5CC(F)(F)C5)cccn4n3)cn2)CC1 [Example 173, 2-[4-[[8-[8-(3,3-difluoroazetidine-1-carbonyl)-3,8-diazabicyclo[3.2.1]octan-3-yl]-[1,2,4]triazolo[1,5-a]pyridin-2-yl]amino]pyrazol-1-yl]-1-(4-methylpiperazin-1-yl)ethanone]	0.5 nM	0.5 nM
CN1CCN(C(=O)Cn2cc(Nc3nc4c(N5CC6CCC(C5)N6S(=O)(=O)CCCC(F)(F)F)cccn4n3)cn2)CC1 [Example 174, 1-(4-methylpiperazin-1-yl)-2-[4-[[8-[8-(4,4,4-trifluorobutylsulfonyl)-3,8-diazabicyclo[3.2.1]octan-3-yl]-[1,2,4]triazolo[1,5-a]pyridin-2-yl]amino]pyrazol-1-yl]ethanone]	0.7 nM	1.1 nM
CN1CCN(C(=O)Cn2cc(Nc3nc4c(N5CC6CCC(C5)N6S(=O)(=O)c5cccnc5)cccn4n3)cn2)CC1 [Example 175, 1-(4-methylpiperazin-1-yl)-2-[4-[[8-[8-(3-pyridylsulfonyl)-3,8-diazabicyclo[3.2.1]octan-3-yl]-[1,2,4]triazolo[1,5-a]pyridin-2-yl]amino]pyrazol-1-yl]ethanone]	0.6 nM	0.9 nM
CN1CCN(C(=O)Cn2cc(Nc3nc4c(N5CC6CCC(C5)N6S(=O)(=O)CCCC#N)cccn4n3)cn2)CC1 [Example 176, 4-[[3-[2-[[1-[2-(4-methylpiperazin-1-yl)-2-oxo-ethyl]pyrazol-4-yl]amino]-[1,2,4]triazolo[1,5-a]pyridin-8-yl]-3,8-diazabicyclo[3.2.1]octan-8-yl]sulfonyl]butanenitrile]	0.7 nM	3.4 nM
CN1CCN(C(=O)Cn2cc(Nc3nc4c(N5CC6CCC(C5)N6S(=O)(=O)C5CC5)cccn4n3)cn2)CC1 [Example 177, 2-[4-[[8-(8-cyclopropylsulfonyl-3,8-diazabicyclo[3.2.1]octan-3-yl)-[1,2,4]triazolo[1,5-a]pyridin-2-yl]amino]pyrazol-1-yl]-1-(4-methylpiperazin-1-yl)ethanone]	2.1 nM	7.5 nM
